Patent publication US20240101546A1, “HETEROARYL-ACETYLENES, PHARMACEUTICAL COMPOSITIONS THEREOF, AND THEIR THERAPEUTIC APPLICATIONS” (Eubulus Biotherapeutics Inc., priority 2020, published 2024)
pEC50: −log10 of the molar value.

These compounds were tested on lung cancer cell line NCI-H82 (assay: Cell proliferation assay, NCI-H82 (CELL-TITER GLO)). Conditions: Homo sapiens, NCI-H82, 72 h, NCI-H82 cells, 72 h incubation, cell viability by CELL-TITER GLO, top concentration 1 μM; read-out: EC50, Inhibition of NCl-H82 Cell Proliferation.
Assay type: cell-based
How it was run: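 NCI-H82 cells, 1,000 per well in RPMI1640, were treated after overnight plating with a 3-fold dilution series from 1 μM. Viability read by CellTiter-Glo luminescence after 72 h. EC50 derived from the curves.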

| pEC50 | SMILES |
| --- | --- |
| ≥ 6.70 | C#Cc1nc(NC(=O)NCc2ccc(-c3cncc(N4CCCC4)c3)cc2)cs1 [Compound A174, 1-(2-Ethynylthiazol-4-yl)-3-(4-(5-(pyrrolidin-1-yl)pyridin-3-yl)benzyl)urea] |
| ≥ 6.70 | C#Cc1nc(NC(=O)NCc2ccc(-c3ccnc(N4CCCC4)c3)cc2)cs1 [Compound A175, 1-(2-Ethynylthiazol-4-yl)-3-(4-(2-(pyrrolidin-1-yl)pyridin-4-yl)benzyl)urea] |
| ≥ 6.70 | C#Cc1nc(NC(=O)NCc2ccc(-c3cccc(N4CCCC4)n3)cc2)cs1 [Compound A176, 1-(2-Ethynylthiazol-4-yl)-3-(4-(6-(pyrrolidin-1-yl)pyridin-2-yl)benzyl)urea] |
| 6.00 to 6.70 | C#Cc1nc(NC(=O)NCc2ccc(-c3cccc4ncsc34)cc2C#N)cs1 [Compound A177, 1-(4-(Benzo[d]thiazol-7-yl)-2-cyanobenzyl)-3-(2-ethynylthiazol-4-yl)urea] |
| ≥ 6.70 | C#Cc1nc(NC(=O)NCc2ccc(-c3cccc4ncsc34)cn2)cs1 [Compound A179, 1-((5-(Benzo[d]thiazol-7-yl)pyridin-2-yl)methyl)-3-(2-ethynylthiazol-4-yl)urea] |
| ≥ 6.70 | C#Cc1nc(NC(=O)NCc2ccc(-c3cccc(C4(C#N)CC4)c3)nc2)cs1 [Compound A180, 1-((6-(3-(1-Cyanocyclopropyl)phenyl)pyridin-3-yl)methyl)-3-(2-ethynylthiazol-4-yl)urea] |
| ≥ 6.70 | C#Cc1nc(NC(=O)N[C@@H](CO)c2ccc(-c3cccc(N4CCC(F)(F)C4)c3)cc2)cs1 [Compound A181, (R)-1-(1-(3′-(3,3-Difluoropyrrolidin-1-yl)-[1,1′-biphenyl]-4-yl)-2-hydroxyethyl)-3-(2-ethynylthiazol-4-yl)urea] |
| ≥ 6.70 | C#Cc1nc(NC(=O)N[C@@H](CO)c2ccc(C3CCCCC3)cc2)cs1 [Compound A182, (R)-1-(1-(4-Cyclohexylphenyl)-2-hydroxyethyl)-3-(2-ethynylthiazol-4-yl)urea] |
| ≥ 6.70 | C#Cc1nc(NC(=O)N[C@@H](CO)c2ccc(C3=CCCCC3)cc2)cs1 [Compound A183, (R)-1-(2-Ethynylthiazol-4-yl)-3-(2-hydroxy-1-(2′,3′,4′,5′-tetrahydro-[1,1′-biphenyl]-4-yl)ethyl)urea] |
| 6.00 to 6.70 | C#Cc1nc(NC(=O)N[C@@H](CO)c2ccc(C3CCN(C)CC3)cc2)cs1 [Compound A184, (R)-1-(2-Ethynylthiazol-4-yl)-3-(2-hydroxy-1-(4-(1-methylpiperidin-4-yl)phenyl)-ethyl)urea] |
| ≥ 6.70 | C#Cc1nc(NC(=O)N[C@@H](CO)c2ccc(-c3cccc(S(C)(=O)=O)c3)cc2)cs1 [Compound A186, (R)-1-(2-Ethynylthiazol-4-yl)-3-(2-hydroxy-1-(3′-(methylsulfonyl)-[1,1′-biphenyl]-4-yl)ethyl)urea] |
| ≥ 6.70 | C#Cc1nc(NC(=O)N[C@@H](CO)c2ccc(-c3cccc(C4(C#N)CC4)c3)cc2)cs1 [Compound A187, (R)-1-(1-(3′-(1-Cyanocyclopropyl)-[1,1′-biphenyl]-4-yl)-2-hydroxyethyl)-3-(2-ethynylthiazol-4-yl)urea] |
| ≥ 6.70 | C#Cc1nc(NC(=O)N[C@@H](CO)c2ccc(-c3cccc(C4CC4(F)F)c3)cc2)cs1 (stereo partly drawn) [Compound A188, 1-((1R)-1-(3′-(2,2-Difluorocyclopropyl)-[1,1′-biphenyl]-4-yl)-2-hydroxyethyl)-3-(2-ethynylthiazol-4-yl)urea] |
| ≥ 6.70 | C#Cc1nc(NC(=O)N[C@@H](CO)c2ccc(-c3cccc(C4(O)CCC4)c3)cc2)cs1 [Compound A189, (R)-1-(2-Ethynylthiazol-4-yl)-3-(2-hydroxy-1-(3′-(1-hydroxycyclobutyl)-[1,1′-biphenyl]-4-yl)ethyl)urea] |
| ≥ 6.70 | C#Cc1nc(NC(=O)N[C@@H](CO)c2ccc(-c3cccc(N4CCC4)c3)cc2)cs1 [Compound A190, (R)-1-(1-(3′-(Azetidin-1-yl)-[1,1′-biphenyl]-4-yl)-2-hydroxyethyl)-3-(2-ethynyl-thiazol-4-yl)urea] |
| ≥ 6.70 | C#Cc1nc(NC(=O)N[C@@H](CO)c2ccc(-c3cccc(N4CC(F)(F)C4)c3)cc2)cs1 [Compound A191, (R)-1-(1-(3′-(3,3-Difluoroazetidin-1-yl)-[1,1′-biphenyl]-4-yl)-2-hydroxyethyl)-3-(2-ethynylthiazol-4-yl)urea] |
| 6.00 to 6.70 | C#Cc1nc(NC(=O)N[C@@H](CO)c2ccc(C3CCCN(C)C3)cc2)cs1 (stereo partly drawn) [Compound A192, 1-(2-Ethynylthiazol-4-yl)-3-((1R)-2-hydroxy-1-(4-(1-methylpiperidin-3-yl)-phenyl)ethyl)urea] |
| 6.00 to 6.70 | C#Cc1nc(NC(=O)N[C@@H](CO)c2ccc(C3=CCCN(C)C3)cc2)cs1 [Compound A193, (R)-1-(2-Ethynylthiazol-4-yl)-3-(2-hydroxy-1-(4-(1-methyl-1,2,5,6-tetrahydro-pyridin-3-yl)phenyl)ethyl)urea] |
| 6.00 to 6.70 | C#Cc1nc(NC(=O)N[C@@H](CO)c2ccc(C3CCCN(C(C)=O)C3)cc2)cs1 (stereo partly drawn) [Compound A194, 1-((1R)-1-(4-(1-Acetylpiperidin-3-yl)phenyl)-2-hydroxyethyl)-3-(2-ethynyl-thiazol-4-yl)urea] |
| ≥ 6.70 | C#Cc1nc(NC(=O)N[C@@H](CO)c2ccc(N3CCCCC3)cc2)cs1 [Compound A195, (R)-1-(2-Ethynylthiazol-4-yl)-3-(2-hydroxy-1-(4-(piperidin-1-yl)phenyl)ethyl)-urea] |
| ≥ 6.70 | C#Cc1nc(NC(=O)N[C@@H](CC#N)c2ccc(-c3cccc4ncsc34)cc2)cs1 [Compound A196, (S)-1-(1-(4-(Benzo[d]thiazol-7-yl)phenyl)-2-cyanoethyl)-3-(2-ethynylthiazol-4-yl)urea] |
| ≥ 6.70 | C#Cc1nc(NC(=O)N[C@@H](CS(C)(=O)=O)c2ccc(-c3cccc4ncsc34)cc2)cs1 [Compound A197, (R)-1-(1-(4-(Benzo[d]thiazol-7-yl)phenyl)-2-(methylsulfonyl)ethyl)-3-(2-ethynyl-thiazol-4-yl)urea] |
| ≥ 6.70 | C#Cc1nc(NC(=O)N[C@@H](CS(N)(=O)=O)c2ccc(-c3cccc4ncsc34)cc2)cs1 [Compound A198, (R)-2-(4-(Benzo[d]thiazol-7-yl)phenyl)-2-(3-(2-ethynylthiazol-4-yl)ureido)-ethane-1-sulfonamide] |
| ≥ 6.70 | C#Cc1nc(NC(=O)N[C@@H](CS(=O)(=O)NC)c2ccc(-c3cccc4ncsc34)cc2)cs1 [Compound A199, (R)-2-(4-(Benzo[d]thiazol-7-yl)phenyl)-2-(3-(2-ethynylthiazol-4-yl)ureido)-N-methylethane-1-sulfonamide] |
| ≥ 6.70 | C#Cc1nc(NC(=O)N[C@@H](COC)c2ccc(-c3cccc4ncsc34)cc2)cs1 [Compound A200, (R)-1-(1-(4-(Benzo[d]thiazol-7-yl)phenyl)-2-methoxyethyl)-3-(2-ethynylthiazol-4-yl)urea] |

| SMILES | pEC50 |
| --- | --- |
| C#Cc1nc(NC(=O)N[C@@H](CO)c2ccc(C3=CCN(C)CC3)cc2)cs1 [Compound A185, (R)-1-(2-Ethynylthiazol-4-yl)-3-(2-hydroxy-1-(4-(1-methyl-1,2,3,6-tetrahydro-pyridin-4-yl)phenyl)ethyl)urea] | 6.00 to 6.70 |

Same assay, conditions: NCI-H82 cells, 72 h incubation, cell viability by CELL-TITER GLO, top concentration 1 μM; read-out: EC50, Inhibition of NCl-H82 Cell Proliferation

| pEC50 | SMILES |
| --- | --- |
| ≥ 6.70 | C#Cc1nc(NC(=O)NCc2ccc(-c3cccc4ncsc34)cc2C#N)cs1 [Compound A178, 1-(4-(Benzo[d]thiazol-7-yl)-2-cyanobenzyl)-3-(2-ethynylthiazol-4-yl)urea] |
